Laboratory results from patent US6962920B2, “Pyrimidine derivatives and methods of making and using these derivatives” (Duquesne University of the Holy Ghost, priority 1992, dated 2005).

How the values were obtained:
RL DHFR = biological target: T1, RL DHFR (Rattus norvegicus, UniProt Q920D2); experiment: Inhibition of DHFR from rat liver; type: biochemical; details: @ 85 μM
T1 construct: Toxoplasmosis gondii (Tg) and rat liver (RL); from tissue; host or cells: rat liver
T1 sequence (Q920D2 1-187): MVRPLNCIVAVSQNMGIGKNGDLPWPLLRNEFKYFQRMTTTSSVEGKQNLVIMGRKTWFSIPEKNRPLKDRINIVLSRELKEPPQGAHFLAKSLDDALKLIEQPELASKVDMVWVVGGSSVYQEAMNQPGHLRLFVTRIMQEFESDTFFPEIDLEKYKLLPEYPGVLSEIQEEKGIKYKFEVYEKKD
Method: The selectivity ratio is a measure of the selectivity of a compound for Pc DHFR or Tg DHFR and is expressed as the IC50 value of the DHFR from rate liver (RL) divided by the IC50 value of either the Pc DHFR or the Tg DHFR, depending on which organism the compounds are being tested against. For example, the selectivity ratio of a compound is calculated by the following formula: [formula]

HL-60 (TB) = experiment: NCI in vitro anti-cancer activity, Leukemia; type: cell-based; details: Table 29, Leukemia
EKVX = type: cell-based; details: Table 29, Non-Small Cell Lung Cancer, read-out: GI50
HOP-92 = type: cell-based; details: Table 29, Non-Small Cell Lung Cancer, HOP-92
NCI-H522 = type: cell-based; details: Table 29, Non-Small Cell Lung Cancer, NCI-H522
COLO 205 = experiment: NCI in vitro anti-cancer activity, Colon Cancer; type: cell-based; details: Table 29, Colon Cancer, COLO 205
SW-620 = experiment: NCI in vitro anti-cancer activity, Colon Cancer; type: cell-based; details: Table 29, Colon Cancer, SW-620
SF-268 = experiment: NCI in vitro anti-cancer activity, CNS Cancer; type: cell-based; details: Table 29, CNS Cancer, SF-268
SF-295 = experiment: NCI in vitro anti-cancer activity, CNS Cancer; type: cell-based; details: Table 29, CNS Cancer, SF-295
SF-539 = experiment: NCI in vitro anti-cancer activity, CNS Cancer; type: cell-based; details: Table 29, CNS Cancer
SNB-19 = experiment: NCI in vitro anti-cancer activity, CNS Cancer; type: cell-based; details: Table 29, CNS Cancer, SNB-19
SNB-75 = experiment: NCI in vitro anti-cancer activity, CNS Cancer; type: cell-based; details: Table 29, CNS Cancer, SNB-75
U251 = experiment: NCI in vitro anti-cancer activity, CNS Cancer; type: cell-based; details: Table 29, CNS Cancer, U251
MALME-3M = experiment: NCI in vitro anti-cancer activity, Melanoma; type: cell-based; details: Table 29, Melanoma
M14 = experiment: NCI in vitro anti-cancer activity, Melanoma; type: cell-based; details: Table 29, Melanoma, M14
SK-MEL-2 = experiment: NCI in vitro anti-cancer activity, Melanoma; type: cell-based; details: Table 29, Melanoma, SK-MEL-2
SK-MEL-28 = experiment: NCI in vitro anti-cancer activity, Melanoma; type: cell-based; details: Table 29, Melanoma, SK-MEL-28
OVCAR-3 = experiment: NCI in vitro anti-cancer activity, Ovarian Cancer; type: cell-based; details: Table 29, Ovarian Cancer, OVCAR-3
OVCAR-4 = experiment: NCI in vitro anti-cancer activity, Ovarian Cancer; type: cell-based; details: Table 29, Ovarian Cancer, OVCAR-4
OVCAR-5 = experiment: NCI in vitro anti-cancer activity, Ovarian Cancer; type: cell-based; details: Table 29, Ovarian Cancer, OVCAR-5
OVCAR-8 = experiment: NCI in vitro anti-cancer activity, Ovarian Cancer; type: cell-based; details: Table 29, Ovarian Cancer, OVCAR-8
SK-OV-3 = experiment: NCI in vitro anti-cancer activity, Ovarian Cancer; type: cell-based; details: Table 29, Ovarian Cancer, SK-OV-3
ACHN = experiment: NCI in vitro anti-cancer activity, Renal Cancer; type: cell-based; details: Table 29, Renal Cancer
CAKI-1 = experiment: NCI in vitro anti-cancer activity, Renal Cancer; type: cell-based; details: Table 29, Renal Cancer, CAKI-1
RXF 393 = experiment: NCI in vitro anti-cancer activity, Renal Cancer; type: cell-based; details: Table 29, Renal Cancer, RXF 393
SN12C = experiment: NCI in vitro anti-cancer activity, Renal Cancer; type: cell-based; details: Table 29, Renal Cancer
TK-10 = experiment: NCI in vitro anti-cancer activity, Renal Cancer; type: cell-based; details: Table 29, Renal Cancer, TK-10
UO-31 = experiment: NCI in vitro anti-cancer activity, Renal Cancer; type: cell-based; details: Table 29, Renal Cancer, UO-31
DU-145 = experiment: NCI in vitro anti-cancer activity, Prostate Cancer; type: cell-based; details: Table 29, Prostate Cancer, DU-145
MCF7 = experiment: NCI in vitro anti-cancer activity, Breast Cancer; type: cell-based; details: Table 29, Breast Cancer, MCF7
HS 578T = experiment: NCI in vitro anti-cancer activity, Breast Cancer; type: cell-based; details: Table 29, Breast Cancer
MDA-MB-435 = experiment: NCI in vitro anti-cancer activity, Breast Cancer; type: cell-based; details: Table 29, Breast Cancer
MDA-N = experiment: NCI in vitro anti-cancer activity, Breast Cancer; type: cell-based; details: Table 29, Breast Cancer
BT-549 = experiment: NCI in vitro anti-cancer activity, Breast Cancer; type: cell-based; details: Table 29, Breast Cancer, BT-549
T-47D = experiment: NCI in vitro anti-cancer activity, Breast Cancer; type: cell-based; details: Table 29, Breast Cancer
NCI-H460 = type: cell-based; details: Table 29, Non-Small Cell Lung Cancer

SMILES: COc1ccccc1CCc1cn(Cc2ccccc2)c2nc(N)nc(C)c12 [Compound 113-148]
- % inhibition RL DHFR (RL DHFR): 27% @
- GI50 (HL-60 (TB)): 4.81 µM
- GI50 (EKVX): 5.78 µM
- GI50 (HOP-92): 16.3 µM
- GI50 (NCI-H522): 8.34 µM
- GI50 (COLO 205): 11.7 µM
- GI50 (SW-620): 17.1 µM
- GI50 (SF-268): 11 µM
- GI50 (SF-295): 8.43 µM
- GI50 (SF-539): 7.2 µM
- GI50 (SNB-19): 10.9 µM
- GI50 (SNB-75): 17.6 µM
- GI50 (U251): 10.4 µM
- GI50 (MALME-3M): 18.6 µM
- GI50 (M14): 12 µM
- GI50 (SK-MEL-2): 13.1 µM
- GI50 (SK-MEL-28): 15.7 µM
- GI50 (OVCAR-3): 14.8 µM
- GI50 (OVCAR-4): 8.88 µM
- GI50 (OVCAR-5): 10.8 µM
- GI50 (OVCAR-8): 17.6 µM
- GI50 (SK-OV-3): 17.3 µM
- GI50 (ACHN): 7.99 µM
- GI50 (CAKI-1): 11.6 µM
- GI50 (RXF 393): 11.1 µM
- GI50 (SN12C): 13.3 µM
- GI50 (TK-10): 10.2 µM
- GI50 (UO-31): 4.78 µM
- GI50 (DU-145): 13.1 µM
- GI50 (MCF7): 12.6 µM
- GI50 (HS 578T): 14.9 µM
- GI50 (MDA-MB-435): 13 µM
- GI50 (MDA-N): 14.7 µM
- GI50 (BT-549): 15.8 µM
- GI50 (T-47D): 3.84 µM
- GI50 (NCI-H460): 7.7 µM
